# Measured values from patent US20100196194A1, “METHOD FOR S[…] WITH OZONE” (BRADFORD I[…], priority 2006, published 2010).
# Assays:
# [1] = tested on: spores of the bacterium Bacillus Atrophaeus; assay: sterilization of standard spore strips (10E6), growth check after 48 hours at 37° C. in tryptone soya broth; assay type: cell-based
# Text: The FIGS. 3A-3B illustrate another experiment, executed on spores of the bacterium Bacillus Atrophaeus (previously known as Bacillus subtilis var. niger); from all bacterial spores, the spores of this bacterium Bacillus Astrophaeus are the most resistant to ozone. Use was made of standard spore strips with the qualification 10E6; these are strips on which in the order of 10^6 bacterial spores have been deposited. The used strips were obtained from the company Etigam BV in Apeldoorn, Netherlands. According to statement of the supplier, these spores were obtained from the American Type Culture Collection (ATCC) 9372.
# In this experiment, the spore strips were submitted to a sterilization process, wherein the ozone concentration, the degree of humidity and the treatment time were measured. The spore strips were removed from the sterilization chamber, and than were stored for 48 hours at a temperature of 37° C. in a test tube filled with tryptone soya broth (“tryptone Soya Broth”, TSB). TSB is a standard nutrition medium, obtainable at Tritium-Microbiologie BV in Veldhoven, Netherlands, type indication T406.24.0005.
# Each time, four spore strips were treated simultaneously. After the storage time of 48 hours, for each spore strip it was investigated whether bacterial spores had grown. If visually no bacterial growth could be detected, it was assumed that all spores of the relevant spore strip had been killed. If visually bacterial growth could be detected, the relevant spore strip was qualified as “insufficiently sterilized”. The results are presented in the FIGS. 3A and 3B, wherein FIG. 3A relates to measurements at an ambient temperature of 20° C. during the sterilization process and FIG. 3B relates to measurements at an ambient temperature of 30° C. during the sterilization process. The horizontal axis in the figures represents the measured degree of humidity in percentages, the vertical axis represents the time integral of the ozone concentration, indicated as ∫[O3], in units of gr·s/l. In the area 131, 100% of the bacterial spores of all four the test strips were always killed. In the area 132, each time one spore strip was insufficiently sterilized. In the area 133, each time two spore strips were insufficiently sterilized. In the area 134, each time three or four spore strips were insufficiently sterilized. The rectangular areas that are cut away from the top left of the graphs are areas belonging to test strips that were not analyzed.
# [2] = tested on: bacterial spores; assay: relation between ozone concentration and time needed for sterilization of bacterial spore samples; assay type: cell-based; details: ozone concentration 2-3 mgr/l (based on 1 atm), moisture content 60-80%
# Experimental: Experimentally, the relation has been investigated between ozone concentration and the time needed for sterilization. A typical measurement procedure is as follows. A sample with bacterial spores is prepared, and exposed in the chamber 10 to an ozone-containing atmosphere with a specific temperature and air humidity, during a specific treatment time, after which the sample is removed from the chamber 10. […] Thus, a series of samples is treated, each time with different treatment times. To obtain a greater certainty, the measurements are repeated, which means that at a certain treatment time always multiple measurements are done with different samples.
# The treated samples are subsequently placed in a conditioned breeding chamber, and it is monitored at which samples bacterial growth is and at which samples bacterial is not taking place. […]
# The results obtained from the culture were correlated to the treatment times. For each value of the ozone concentration, it was assessed what the LONGEST treatment time was where bacterial growth was still observed: this treatment time was apparently insufficient to guarantee 100% elimination of the spores; this measurement point and all measurement points with shorter treatment times, in FIG. 2, are indicated with open circles. […]
compound,measurement,setting,value
O=[O+][O-] [ozone],degree of humidity giving optimal sterilization result,"[1]; FIG. 3A, ambient temperature 20° C.",approximately 80 % RH
same,effect of increasing the ambient temperature on sterilization,[1]; ambient temperature increased to 30° C. (versus 20° C.),favourable effect
same,effect of increasing the degree of humidity on sterilization,[1]; degree of humidity increased to 95%,did not give clear improvement
same,sterilization at low degree of humidity,[1]; less than 50% RH,no good sterilization proved to be possible
same,ozone performance equivalent OPEQ (minimum time integral of ozone concentration leading to 100% sterilization),"[1]; worst case 60% RH and 20° C., valid at all humidity above 60% RH, at 20° C. and 30° C.",15 gr·s/l
same,sterilization result in experimental set-up,[2],good results
